{"source": "patent US8084596B2", "about": "“Regulated apoptosis” (The Board of Trustees of the Leland Stanford Junior …, priority 1993, dated 2011)", "biological_target": "T1, myristoylated Fas-FKBP12 fusion protein (MFF3E) (Homo sapiens, UniProt P25445)", "T1 construct": "expressed in transfected cells; host or cells: Jurkat T cells stably transformed with large T-antigen, transient transfection", "T1 sequence (P25445 with tags, fused parts or gaps)": "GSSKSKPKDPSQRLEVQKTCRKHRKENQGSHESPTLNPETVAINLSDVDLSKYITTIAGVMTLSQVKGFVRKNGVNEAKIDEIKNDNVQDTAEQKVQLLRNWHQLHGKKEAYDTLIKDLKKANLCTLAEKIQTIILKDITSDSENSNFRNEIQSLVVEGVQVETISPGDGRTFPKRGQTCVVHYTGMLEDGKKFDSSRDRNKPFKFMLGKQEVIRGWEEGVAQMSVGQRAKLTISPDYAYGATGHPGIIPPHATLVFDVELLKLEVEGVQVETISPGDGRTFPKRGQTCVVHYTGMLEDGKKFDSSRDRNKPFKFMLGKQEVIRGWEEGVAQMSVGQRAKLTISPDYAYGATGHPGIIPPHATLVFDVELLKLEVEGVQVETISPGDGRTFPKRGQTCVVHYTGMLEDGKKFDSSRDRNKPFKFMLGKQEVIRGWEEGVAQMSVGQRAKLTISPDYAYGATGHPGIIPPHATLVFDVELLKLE", "type": "cell-based"}
{"substance": "FK1012-A (p-xylylenediamine bridge) [FK1012A]", "values": [{"measurement": "LD50 for mediated death of cells", "value": 15, "unit": "nM"}]}
